Assay results taken from US20130029970A1 (priority 2009, published 2013).
Like-named read-outs stand apart in the source and are kept apart here.

Assays:
human CB1 (hCB1) = target: T1, human CB1 (hCB1) (Homo sapiens, UniProt P21554); test: 35S GTPγS binding assay, hCB1 agonist; format: biochemical; settings: GTPγS agonist, HEK-293 membranes; read-out: hCB1 EC50 (GTPyS ag)
T1 construct: (cDNA clone) CNR01L000

human CB2 receptors = target: T2, human CB2 receptors (Homo sapiens, UniProt P34972); test: cAMP assay in HEK-293 cells, hCB2 agonist; format: cell-based
T2 construct: (cDNA clone) CNR0200000
T2 sequence (P34972 whole entry): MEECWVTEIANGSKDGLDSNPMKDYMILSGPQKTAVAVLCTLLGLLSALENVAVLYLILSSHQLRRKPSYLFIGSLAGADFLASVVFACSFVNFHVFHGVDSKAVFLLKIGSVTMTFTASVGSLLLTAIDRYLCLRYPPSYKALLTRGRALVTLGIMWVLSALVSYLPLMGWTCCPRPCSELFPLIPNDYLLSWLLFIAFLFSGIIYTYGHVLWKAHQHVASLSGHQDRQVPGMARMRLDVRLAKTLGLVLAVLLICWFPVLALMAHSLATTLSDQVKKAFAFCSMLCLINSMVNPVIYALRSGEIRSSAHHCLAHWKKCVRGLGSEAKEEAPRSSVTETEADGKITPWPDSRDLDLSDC
Summary of the method: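 Stable hCB2 HEK-293 cells in HBSS/10 mM HEPES/0.1% fatty-acid-free BSA incubated 30 min at 37° C with compound; forskolin 90 uM in 3× compound mix.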

[1] = target: T3, recombinant human cannabinoid receptor CB1 (Homo sapiens, UniProt P21554); test: Cannabinoid receptor radioligand binding assay, [3H]-CP 55,940 displacement, hCB1
T3 construct: (cDNA clone) CNR01L000
T3 sequence (P21554 whole entry): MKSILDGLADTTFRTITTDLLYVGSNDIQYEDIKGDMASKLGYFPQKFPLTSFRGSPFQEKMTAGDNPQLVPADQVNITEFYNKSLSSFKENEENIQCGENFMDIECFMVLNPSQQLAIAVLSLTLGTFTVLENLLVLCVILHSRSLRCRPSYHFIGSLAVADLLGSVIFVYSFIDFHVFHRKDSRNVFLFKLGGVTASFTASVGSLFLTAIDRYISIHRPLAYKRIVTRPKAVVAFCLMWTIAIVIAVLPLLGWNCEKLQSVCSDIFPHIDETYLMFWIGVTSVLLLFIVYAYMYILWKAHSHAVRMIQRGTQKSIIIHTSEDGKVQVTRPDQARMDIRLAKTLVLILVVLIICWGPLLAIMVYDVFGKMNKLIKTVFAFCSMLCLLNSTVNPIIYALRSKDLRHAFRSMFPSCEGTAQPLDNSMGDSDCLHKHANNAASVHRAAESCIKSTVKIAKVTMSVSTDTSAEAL
Summary of the method: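 Displacement of 0.5 nM [3H]-CP 55,940 (1 μM unlabeled CP 55,940 for nonspecific) measured by filtration and scintillation counting. Binding ran 90 min at room temperature in pH 7.5 Tris buffer with 0.1% fatty-acid-free BSA, using recombinant hCB1 HEK-293 membranes at 2-10 μg protein.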

[2] = inhibition of forskolin-stimulated cAMP, HEK-293 cells, read-out: hCB2 EC50 (cAMP ag)

T1 sequence (P21554 whole entry): as above

Cc1cc2cc(C(=O)c3ccccc3OC(F)(F)F)sc2n1CCN1CCOCC1 [Compound 15, (5-Methyl-6-(2-morpholinoethyl)-6H-thieno[2,3-b]pyrrol-2-yl)(2-(trifluoromethoxy)phenyl)methanone]
EC50 (human CB1 (hCB1)): 0.1 to 1 µM
EC50 (human CB2 receptors): < 0.1 µM
IC50 [1]: < 0.1 µM

COc1ccc(C(=O)c2cc3cc(C)n(CCN4CCCCC4)c3s2)c(F)c1 [Compound 98, (2-Fluoro-4-methoxyphenyl)(5-methyl-6-(2-(piperidin-1-yl)ethyl)-6H-thieno[2,3-b]pyrrol-2-yl)methanone]
EC50 (human CB2 receptors): < 0.1 µM
IC50 [1]: 1 to 10 µM

COc1ccc(C(=O)c2cc3cc(C)n(CCN4CCCCC4)c3s2)c(O)c1 [Compound 99, (2-Hydroxy-4-methoxyphenyl)(5-methyl-6-(2-(piperidin-1-yl)ethyl)-6H-thieno[2,3-b]pyrrol-2-yl)methanone]
EC50 (human CB2 receptors): < 0.1 µM
IC50 [1]: 1 to 10 µM

COc1ccc(C(O)c2cc3cc(C)n(CCN4CCOCC4)c3s2)cc1 (stereo not drawn) [Compound 100, (4-Methoxyphenyl)(5-methyl-6-(2-morpholinoethyl)-6H-thieno[2,3-b]pyrrol-2-yl)methanol]
EC50 (human CB2 receptors; [2]): < 0.1 µM
IC50 [1]: 1 to 10 µM

COc1ccc(C(C)(O)c2cc3cc(C)n(CCN4CCOCC4)c3s2)cc1 (stereo not drawn) [Compound 101, 1-(4-methoxyphenyl)-1-(5-methyl-6-(2-morpholinoethyl)-6H-thieno[2,3-b]pyrrol-2-yl)ethanol]
EC50 (human CB2 receptors; [2]): < 0.1 µM
IC50 [1]: 1 to 10 µM

COc1ccc(C(=O)c2cc3cc(C)n(CCCCNS(C)(=O)=O)c3s2)cc1 [Compound 102, N-(4-(2-(4-Methoxybenzoyl)-5-methyl-6H-thieno[2,3-b]pyrrol-6-yl)butyl)methanesulfonamide]
EC50 (human CB2 receptors; [2]): < 0.1 µM
IC50 [1]: 1 to 10 µM

COc1ccc(Cn2c(C)cc3cc(C(=O)c4ccc(OC)cc4)sc32)cc1 [Compound 103, (6-(4-Methoxybenzyl)-5-methyl-6H-thieno[2,3-b]pyrrol-2-yl)(4-methoxyphenyl)methanone]
EC50 (human CB2 receptors): 0.1 to 1 µM
IC50 [1]: 1 to 10 µM

COc1ccc(C(=S)c2cc3cc(C)n(CCN4CCOCC4)c3s2)cc1 [Compound 104, (4-methoxyphenyl)(5-methyl-6-(2-morpholinoethyl)-6H-thieno[2,3-b]pyrrol-2-yl)methanethione]
EC50 (human CB2 receptors): 0.1 to 1 µM
IC50 [1]: 1 to 10 µM

COc1ccc(C(=O)c2cc3cc(C)n(CCCNS(N)(=O)=O)c3s2)cc1 [Compound 105]
EC50 (human CB2 receptors): 1 to 10 µM
IC50 [1]: > 10 µM

Cc1cc2cc(C(=O)c3ccc4c(c3)OCO4)sc2n1CCN1CCOCC1 [Compound 106, Benzo[d][1,3]dioxol-5-yl(5-methyl-6-(2-morpholinoethyl)-6H-thieno[2,3-b]pyrrol-2-yl)methanone]
EC50 (human CB2 receptors): < 0.1 µM
IC50 [1]: 1 to 10 µM

COc1ccc(C(=O)c2cc3cc(C)n(CCCNC(C)(C)C)c3s2)cc1 [Compound 108, (6-(3-(tert-Butylamino)propyl)-5-methyl-6H-thieno[2,3-b]pyrrol-2-yl)(4-methoxyphenyl)methanone]
EC50 (human CB2 receptors): 1 to 10 µM
IC50 [1]: > 10 µM

COc1ccc(C(=O)c2cc3cc(C)n(CCCNS(C)(=O)=O)c3s2)cn1 [Compound 109, N-(3-(2-(6-Methoxynicotinoyl)-5-methyl-6H-thieno[2,3-b]pyrrol-6-yl)propyl)methanesulfonamide]
EC50 (human CB2 receptors; [2]): < 0.1 µM
IC50 [1]: > 10 µM

COc1ccc(C(=O)c2cc3cc(C)n(CCN4CCSCC4)c3s2)cc1 [Compound 110, (4-Methoxyphenyl)(5-methyl-6-(2-thiomorpholinoethyl)-6H-thieno[2,3-b]pyrrol-2-yl)methanone]
EC50 (human CB2 receptors): < 0.1 µM
IC50 [1]: 1 to 10 µM

Cc1cc2cc(C(=O)c3ccc(OC(C)C)cc3)sc2n1CCN1CCOCC1 [Compound 111, (4-Isopropoxyphenyl)(5-methyl-6-(2-morpholinoethyl)-6H-thieno[2,3-b]pyrrol-2-yl)methanone]
EC50 (human CB2 receptors): < 0.1 µM
IC50 [1]: 1 to 10 µM

COc1ccc(C(=O)c2cc3cc(C)n(Cc4ccncc4)c3s2)cc1 [Compound 112, (4-Methoxyphenyl)(5-methyl-6-(pyridin-4-ylmethyl)-6H-thieno[2,3-b]pyrrol-2-yl)methanone]
EC50 (human CB2 receptors): 0.1 to 1 µM
IC50 [1]: 1 to 10 µM

COc1ccc(C(=O)c2cc3cc(C)n(S(=O)(=O)N(C)C)c3s2)cn1 [Compound 113, 2-(6-Methoxynicotinoyl)-N,N,5-trimethyl-6H-thieno[2,3-b]pyrrole-6-sulfonamide]
EC50 (human CB2 receptors): < 0.1 µM
IC50 [1]: 1 to 10 µM

COc1ccc(C(=O)c2cc3cc(C)n(Cc4ccccc4)c3s2)c(Cl)c1 [Compound 114, (6-Benzyl-5-methyl-6H-thieno[2,3-b]pyrrol-2-yl)(2-chloro-4-methoxyphenyl)methanone]
EC50 (human CB2 receptors; [2]): 1 to 10 µM
IC50 [1]: 1 to 10 µM

CSc1ccc(C(=O)c2cc3cc(C)n(CCN4CCOCC4)c3s2)cc1 [Compound 115, (5-Methyl-6-(2-morpholinoethyl)-6H-thieno[2,3-b]pyrrol-2-yl)(4-(methylthio)phenyl)methanone]
EC50 (human CB2 receptors): 0.1 to 1 µM
IC50 [1]: 1 to 10 µM

COc1ccc(C(=O)c2cc3cc(C)n(CCN4CCOCC4)c3s2)cc1Cl [Compound 116, (3-Chloro-4-methoxyphenyl)(5-methyl-6-(2-morpholinoethyl)-6H-thieno[2,3-b]pyrrol-2-yl)methanone]
EC50 (human CB2 receptors): < 0.1 µM
IC50 [1]: 1 to 10 µM

COc1ccc(C(=O)c2cc3cc(C)n(CCN4CCCCC4)c3s2)cn1 [Compound 117, (6-Methoxypyridin-3-yl)(5-methyl-6-(2-(piperidin-1-yl)ethyl)-6H-thieno[2,3-b]pyrrol-2-yl)methanone]
EC50 (human CB2 receptors): < 0.1 µM
IC50 [1]: 1 to 10 µM

CCc1ccc(C(=O)c2cc3cc(C)n(CCN4CCOCC4)c3s2)cc1 [Compound 122, (4-Ethylphenyl)(5-methyl-6-(2-morpholinoethyl)-6H-thieno[2,3-b]pyrrol-2-yl)methanone]
EC50 (human CB2 receptors): < 0.1 µM
IC50 [1]: 1 to 10 µM

Cc1cc2cc(C(=O)c3cccc(Cl)n3)sc2n1CCN1CCOCC1 [Compound 123, (6-Chloropyridin-2-yl)(5-methyl-6-(2-morpholinoethyl)-6H-thieno[2,3-b]pyrrol-2-yl)methanone]
EC50 (human CB2 receptors): < 0.1 µM
IC50 [1]: 1 to 10 µM

Cc1ccc(C(=O)c2cc3cc(C)n(CCN4CCOCC4)c3s2)cc1 [Compound 124, (5-Methyl-6-(2-morpholinoethyl)-6H-thieno[2,3-b]pyrrol-2-yl)(p-tolyl)methanone]
EC50 (human CB2 receptors): < 0.1 µM
IC50 [1]: 1 to 10 µM

Cc1ccc(C(O)c2cc3cc(C)n(CCN4CCOCC4)c3s2)cn1 (stereo not drawn) [Compound 125, (5-Methyl-6-(2-morpholinoethyl)-6H-thieno[2,3-b]pyrrol-2-yl)(6-methylpyridin-3-yl)methanol]
EC50 (human CB2 receptors): 0.1 to 1 µM
IC50 [1]: > 10 µM

COc1cc(F)c(C(=O)c2cc3cc(C)n(CCN4CCOCC4)c3s2)c(F)c1 [Compound 127, (2,6-difluoro-4-methoxyphenyl)(5-methyl-6-(2-morpholinoethyl)-6H-thieno[2,3-b]pyrrol-2-yl)methanone]
EC50 (human CB2 receptors): < 0.1 µM
IC50 [1]: 1 to 10 µM

Cc1ccc(C(=O)c2cc3cc(C)n(CCN4CCOCC4)c3s2)cn1 [Compound 130, (5-methyl-6-(2-morpholinoethyl)-6H-thieno[2,3-b]pyrrol-2-yl)(6-methylpyridin-3-yl)methanone]
EC50 (human CB2 receptors): 0.1 to 1 µM
IC50 [1]: > 10 µM

COc1ccc(C(=O)c2cc3cc(C)n(CCN4CCOCC4)c3s2)nc1 [Compound 131, (5-methoxypyridin-2-yl)(5-methyl-6-(2-morpholinoethyl)-6H-thieno[2,3-b]pyrrol-2-yl)methanone]
EC50 (human CB2 receptors): < 0.1 µM
IC50 [1]: 1 to 10 µM

Cc1cc2cc(C(=O)c3ccc(N(C)C(=O)OC(C)(C)C)cc3)sc2n1CCN1CCOCC1 [Compound 132, tert-butylmethyl(4-(5-methyl-6-(2-morpholinoethyl)-6H-thieno[2,3-b]pyrrole-2-carbonyl)phenyl)carbamate]
EC50 (human CB2 receptors): 0.1 to 1 µM
IC50 [1]: 1 to 10 µM

CNc1ccc(C(=O)c2cc3cc(C)n(CCN4CCOCC4)c3s2)cc1 [Compound 134, (5-methyl-6-(2-morpholinoethyl)-6H-thieno[2,3-b]pyrrol-2-yl)(4-(methylamino)phenyl)methanone]
EC50 (human CB2 receptors): < 0.1 µM
IC50 [1]: 1 to 10 µM

COc1ccc(C(=O)c2cc3c(Cl)c(C)n(CCN4CCOCC4)c3s2)cc1 [Compound 140, (4-chloro-5-methyl-6-(2-morpholinoethyl)-6H-thieno[2,3-b]pyrrol-2-yl)(4-methoxyphenyl)methanone]
EC50 (human CB2 receptors): < 0.1 µM
IC50 [1]: 1 to 10 µM

CCN(CC)CCn1c(C)cc2cc(C(=O)c3ccc(OC)nc3)sc21 [Compound 142, (6-(2-(diethylamino)ethyl)-5-methyl-6H-thieno[2,3-b]pyrrol-2-yl)(6-methoxypyridin-3-yl)methanone]
EC50 (human CB2 receptors): 0.1 to 1 µM
IC50 [1]: > 10 µM

COc1ccc(C(=O)c2cc3cc(C)n(CC4CCOCC4)c3s2)cn1 [Compound 144, (6-methoxypyridin-3-yl)(5-methyl-6-((tetrahydro-2H-pyran-4-yl)methyl)-6H-thieno[2,3-b]pyrrol-2-yl)methanone]
EC50 (human CB2 receptors): < 0.1 µM
IC50 [1]: 1 to 10 µM

COc1ccc(C(=O)c2cc3cc(C)n(CC4CCOCC4)c3s2)c(F)c1 [Compound 145, (2-fluoro-4-methoxyphenyl)(5-methyl-6-((tetrahydro-2H-pyran-4-yl)methyl)-6H-thieno[2,3-b]pyrrol-2-yl)methanone]
EC50 (human CB2 receptors): < 0.1 µM
IC50 [1]: 1 to 10 µM

CCOc1ccc(C(=O)c2cc3cc(C)n(CCN4CCOCC4)c3s2)cn1 [Compound 150, (6-Ethoxypyridin-3-yl)(5-methyl-6-(2-morpholinoethyl)-6H-thieno[2,3-b]pyrrol-2-yl)methanone]
EC50 (human CB2 receptors): < 0.1 µM
IC50 [1]: > 10 µM
